Test results as given in PMC5974779, “Prediction of Drug-Induced Hepatotoxicity Using Long-Term Stable Primary Hepatic 3D Spheroid Cultures in Chemically Defined Conditions” (Toxicological Sciences, 2018).
Read-outs that look alike come from different tables or passages of the source.

What was measured:
[1] = tested on: clinical DILI in man; conditions: cited from earlier work
[2] = cited from earlier work
[3] = tested on: primary human hepatocytes (PHH) 3D spheroids; assay: CD-spheroid hepatotoxicity: ATP viability (CellTiter-Glo) of PHH 3D spheroids after 14 days repeated exposure at 1×, 5×, 20× cmax
[4] = tested on: primary human hepatocytes (PHH) 3D spheroids
[5] = tested on: PHH 2D sandwich cultures; conditions: cited from earlier work
[6] = tested on: PHH micropatterned cocultures with murine embryonic fibroblasts; conditions: cited from earlier work
[7] = tested on: PHH spheroids (hanging-drop); conditions: cited from earlier work
[8] = ref DrugBank and Prescribers' Digital Reference database; cited from earlier work
[9] = in vitro; conditions: human
[10] = therapeutic total cmax, ref PMID
[11] = PHH 2D sandwich cultures, 100x Cmax, ref Xu 2008
[12] = micropatterned cocultures, 100x Cmax, ref Khetani 2013
[13] = PHH hanging-drop spheroids, 100x Cmax, ref Proctor 2017

| Compound | Classified as ([1]; in vivo) | DILI in vivo ([1]; in vivo) | Type of DILI ([1]; in vivo) | Chemically defined spheroids (this study) 20x [4] | Clinical DILI class (panel heading of Figure 4) ([1]; in vivo) | FDA (0-8) ([1]; in vivo) | Xu et al. (2008) ([1]; in vivo) | Cmax [2, 10] [µM] | Extent of hepatic metabolism [8] | 2Dsw (Xu 2008) 100x [5, 11] | MPCC (Khetani 2013) 100x [6, 12] | Hanging-drop spheroids (Proctor 2017) 100x [7, 13] | other results |
| --- | --- | --- | --- | --- | --- | --- | --- | --- | --- | --- | --- | --- | --- |
| Aflatoxin B1 | POS | POS | Hepatocellular injury | – | – | – | – | – | – | – | – | – | Cmax ([2]; human, in vivo): 0.03 µM; Chemically defined spheroids (this study) 20x [3]: Positive |
| CNCCC(Oc1ccc(C(F)(F)F)cc1)c1ccccc1 (stereo not shown) [Fluoxetine] | NEG | NEG | Non-hepatotoxic | Negative | DILI negative | 3 | Negative | – | – | – | – | – | Sakatis et al. (2012) ([1]; in vivo): non-hepatotixic; Suzuki et al. (2010) ([1]; in vivo): 2; 2Dsw (Xu 2008) 100x [5]: Negative; MPCC (Khetani 2013) 100x [6]: Negative; hepatotoxicity classification in hanging-drop PHH spheroids ([7]; 100× cmax, 2 weeks, ref Proctor et al., 2017): flagged as hepatotoxic; Hanging-drop spheroids (Proctor 2017) 100x [7]: Positive |
| CNCCc1ccccn1 [Betahistine] | – | – | – | Negative | – | – | – | 0.0037 | Moderate | Negative | Negative | – | DILI in vivo ([1]; clinical DILI classification in man (POS/NEG)): POS; Classified as ([1]; clinical DILI classification used in this study, Supplementary Table 2, ref Chen et al., 2011, Guo et al., 2005, O'Brien et al., 2006, Sakatis et al., 2012, Suzuki et al., 2010, Xu et al., 2008): POS; DILI in vivo ([1]; clinical DILI classification, Supplementary Table 1, ref Chen et al., 2011, Guo et al., 2005, O'Brien et al., 2006, Sakatis et al., 2012, Suzuki et al., 2010, Xu et al., 2008): POS |
| O=C1CC2(CCCC2)CC(=O)N1CCCCN1CCN(c2ncccn2)CC1 [Buspirone] | – | – | – | Negative | – | – | – | – | – | Negative | Negative | Negative | hepatotoxicity evaluation in CD-spheroids [4]: not hepatotoxic |
| Cn1cnc([N+](=O)[O-])c1Sc1ncnc2nc[nH]c12 [Azathioprine] | POS | POS | Cholestatic injury or Mixed hepatitis | Positive | High DILI concern | 5 | Positive | 7.21 | Extensive | Positive | – | Positive | viability at 14 days, 1 × cmax [9]: < 10%; FDA (Severity) ([1]; in vivo): less DILI concern; Guo et al. (2005) ([1]; in vivo): 3; O'Brien et al. (2003) ([1]; in vivo): Moderately; Sakatis et al. (2012) ([1]; in vivo): Hepatotoxic; Suzuki et al. (2010) ([1]; in vivo): 1 |
| O=C(O)Cc1ccccc1Nc1c(Cl)cccc1Cl [Diclofenac] | – | – | – | Positive | – | – | – | – | – | Positive | Positive | Positive | – |
| O=c1n(CCCN2CCN(c3cccc(Cl)c3)CC2)nc2ccccn12 [Trazodone] | POS | POS | Hepatocellular injury, Cholestatic injury or Mixed hepatitis | Positive | High DILI concern | 5 | Positive | 5.1 | Extensive | Positive | Positive | – | FDA (Severity) ([1]; in vivo): less DILI concern |
| COC1=CC(=O)C[C@@H](C)[C@]12Oc1c(Cl)c(OC)cc(OC)c1C2=O [Griseofulvin] | – | – | – | Negative | – | – | – | 4.54 | Extensive | – | – | – | viability at 14 days, 20 × cmax [9]: > 100% |
| CN(C)CCCN1c2ccccc2CCc2ccccc21 [Imipramine] | – | – | – | – | – | – | – | – | Extensive | Negative | Positive | Positive | hepatotoxicity detection in 2D sandwich cultures of PHH ([5]; 100× cmax, 24 h, high content imaging, ref Xu et al., 2008): liver toxicity was not recognized |
